Earlier results in patent US9635858B2, “Pesticide and a method of controlling a wide variety of pests” (GOWAN COMERCIO INTERNACIONAL E SERVICOS LIMITADA, priority 2011, dated 2017).

Conditions: rats; cited from earlier work

C/C=C(\C)C(=O)O[C@H]1C[C@@H](OC(C)=O)[C@@]2(C(=O)OC)CO[C@H]3[C@@H](O)[C@@](C)([C@]45O[C@@]4(C)[C@H]4C[C@@H]5O[C@@H]5OC=C[C@@]54O)C4[C@]1(CO[C@]4(O)C(=O)OC)[C@@H]32 (stereo partly shown) [Azadirachtin]
LD50: > 3,540 mg/kg
